Results on eight compounds are retold here after article PMC5929572, “Nucleobases and corresponding nucleosides display potent antiviral activities against dengue virus possibly through viral lethal mutagenesis” (PLoS Neglected Tropical Diseases, 2018).

A short description of data set [1]: Cell viability assay (MTS) in DENV replicon cells. In kind it is cell-based, baby hamster. To be noted: hamster, DENV replicon cells (BHK pD2-hRucPac-2ATG30), DENV replicon BHK cells, MTS, 72 h.
The next data set deals with DENV-2 viral replicon. Nature of the data set: microbe, parasite or virus in culture. The data set is classed as cell-based. To be noted: Dengue virus. How it is done:
Compounds were evaluated for antiviral properties using BHK cells containing a DENV-2 viral replicon. 1.5 × 10^3 replicon-containing cells per well were plated in white opaque 96-well plates in the absence of antibiotic selection and the next day, compounds dissolved in DMSO were added to triplicate wells in culture medium. The compounds were initially tested at 10 and 50 μM final concentrations and each plate also contained DMSO alone, medium alone, and 6. Three days later, medium was replaced with a 1:1000 dilution of ViVi-Ren Live Cell Substrate (Promega) in DME minus phenol red and 10% FBS. Luminescence was measured with a Molecular Devices M5e plate reader. Mean values of triplicate wells were determined and compared to the mean value for the wells that received DMSO alone. […] The EC50 was determined by comparing luciferase activity for eight serial dilutions of the compound and DMSO treated cells using GraphPad Prism software.

In data set [2] the test system is DENV replicon cells (BHK pD2-hRucPac-2ATG30). As to the kind of experiment: Cell viability assay (MTS) in DENV replicon cells. In kind it is cell-based, baby hamster. To be noted: for CC50: DENV replicon BHK cells, MTS, 72 h. A general note: Replicon systems follow genome replication, usually without infectious particles.
Setting [3] is: DENV2, 72 h, DENV replicon BHK cells, luciferase, 3 days, read-out: EC50.

Read-outs that look alike come from different tables or passages of the source.

Take `NC(=O)c1ncn([C@@H]2O[C@H](CO)[C@@H](O)[C@H]2O)n1` [Compound 1b, ribavirin, reference compound]: in data set [1], the CC50 (commonly the concentration at which the toxic effect on the cells reaches its halfway point) at 72 h is 20 µM.

With `NC(=O)c1nc[nH]c1O` [Compound 2a, 5-Hydroxy-1H-imidazole-4-carboxamide], the EC50 (in general, the concentration at which the effect is half-maximal) in the data set on DENV-2 viral replicon (setting [3]) turned out to be 2.4 µM. In data set [1], this compound gave a 50% cytotoxic concentration (CC50) at 72 h of 23 ± 4.2 µM.

In turn, `NC(=O)c1nc[nH]n1` [Compound 1a, 1,2,4-Triazole-3-carboxamide] yielded an EC50 in the data set on DENV-2 viral replicon (DENV2, BHK, 72 h) of 4.9 ± 1.6 µM. Besides, the CC50 at 72 h in data set [1] is more than 1000 µM. In data set [2], this compound had a CC50 of more than 665 µM. The cytotoxicity result in data set [2] (at 1000 μM, DENV replicon cells) is listed as “did not show cytotoxicity”.

`NC(=O)c1ncn([C@@H]2O[C@H](CO)[C@@H](O)[C@H]2O)c1O` [Compound 2b, mizoribine, reference compound]: the EC50 with DENV-2 viral replicon (setting [3]) stood at 15 µM. For the same compound, the CC50 at 72 h in data set [1] amounted to 33 ± 12 µM.

For `Nc1nc(N)c2[nH]cnc2n1` [Compound 4a, 2,6-diaminopurine], the CC50 at 72 h in data set [1] was 13 ± 2.1 µM.

In the data set on DENV-2 viral replicon (DENV2, BHK, 72 h), `COc1c(C)c2c(c(O)c1C/C=C(\C)CCC(=O)O)C(=O)OC2` [Compound 6, mycophenolic acid, reference compound] registered an EC50 of 0.3 ± 0.03 µM. This compound yielded a CC50 at 72 h in data set [1] of 1.4 ± 0.4 µM.

For `Nc1nc(N)c2ncn([C@@H]3O[C@H](CO)[C@@H](O)[C@H]3O)c2n1` [Compound 4b, 2-Aminoadenosine], half-maximal cytotoxicity in data set [1] (CC50 at 72 h) was put at 31 ± 1.4 µM. Further, the “toxicity, in words” value in data set [2] (DENV replicon cells) is “too toxic”.

As for `NC(=O)c1nc(F)c[nH]c1=O` [Compound 5a, 6-fluoro-3-hydroxypyrazine-2-carboxamide, reference compound], in the data set on DENV-2 viral replicon (DENV2, BHK, 72 h), the 50% effective concentration (EC50) amounted to 110 ± 30 µM. For the same compound, the CC50 at 72 h in data set [1] is more than 1000 µM. Also, the half-maximal cytotoxic concentration (CC50) in data set [2] was more than 665 µM.
